Measured values from article PMC2685802, “Daptomycin in experimental murine pneumococcal meningitis” (BMC Infectious Diseases, 2009).
Read-outs that look alike come from different tables or passages of the source.

Columns and labels:
[1] = Serum antibiotic concentration in mice after intraperitoneal dose (microbiological assay); assay type: in vivo; settings: single dose, detection limit 0.5 μg/ml
Procedure: The 30 minute serum concentration of vancomycin or daptomycin in 25–30 gram immunocompetent hairless mice (Charles River Laboratories, Wilmington, MA) was determined following intraperitoneal injection of 40, 50 and 60 mg/kg vancomycin or 20, 30, 40 and 50 mg/kg daptomycin, respectively. Pharmacokinetic profiles were determined by injecting 50 mg/kg vancomycin or 25 mg/kg daptomycin intraperitoneally and obtaining serum samples 30, 60, 120, 180 and 240 minutes post injection. Drug activity was measured using a microbiological assay technique. Standard curves for serum drug level determination were performed by making drug dilutions in pooled mouse serum (Innovative Research, Incorporated, Southfield, MI). The reporter bacteria for the vancomycin and daptomycin bioassays were Bacillus subtilis and Micrococcus luteus, respectively. Zones of growth inhibition were measured to the nearest millimeter. The detection limit for both drugs was 0.5 μg/ml.

[2] = system: penicillin-resistant pneumococcal strains; settings: cited from earlier work
Source text: Four studies of daptomycin treatment of experimental meningitis have been reported. […] Similarly, Gerber et al. reported bactericidal activity in a rabbit model of Staphyloco ...

[3] = system: S. pneumoniae Xen10; assay: Time kill assay; assay type: cell-based, Streptococcus pneumoniae; settings: daptomycin 1 μg/ml or vancomycin 2 μg/ml alone and with dexamethasone 100 μg/ml
Source text: Figure 1 Time kill assay. […] DP, daptomycin; VN, vancomycin; DX, dexamethasone.

[4] = system: Streptococcus pneumoniae A 66.1 serotype 3 (Xen 10); assay type: in vivo, mice
Procedure: This study was approved by the Institutional Animal Care and Use Committee of the Mayo Clinic, Rochester, Minnesota. Ninety-six 25–30 gram immunocompetent hairless mice were divided into three treatment groups. Sixteen hours prior to treatment, mice were anesthetized using ketamine and xylazine (45 mg/kg and 5 mg/kg I.M., respectively) and 3 × 10^4 cfu of bacteria in a 20 μl volume were inoculated into the cisterna magna. The time of treatment was selected as the latest time point at which antimicrobial treatment could realistically lead to recovery. […] At 20 hours post infection an additional dose of vancomycin 50 mg/kg was given to the vancomycin-treated animals. Mice not receiving vancomycin at 20 hours were injected with an equal volume of saline. At 16, 20, and 24 hours post infection, 8, 40 and 48 animals, respectively were re anesthetized and cerebrospinal fluid (CSF) was collected by way of puncture from the cisterna magna (using a 28 G 1/2 needle 0.3 × 13 mm from BD Microlance). CSF white-blood cell count was determined and bacterial burden was quantified in CSF by plating serial 10-fold dilutions in sterile isotonic saline onto blood agar plates. Results were expressed as log10 cfu/ml; the detection limit was 20 cfu/ml of CSF. Following collection of CSF, animals were euthanized with a lethal dose of pentobarbital, their brains collected and placed in 10% neutral buffered formalin.
Bacterial concentrations between treatment groups at each time point were compared using the student t-test. Correlation analysis between log10 bacterial CSF titers and log10 photons/second was calculated using SPSS statistical software. For inflammation, neuronal necrosis, and apoptosis scores, statistical analysis included a nonparametric Kruskal-Wallis test followed by a Dunn's test comparing all treatment groups using a confidence level of 95%.

[5] = human, 6 mg/kg q.d. intravenously (highest FDA-approved dose); no reference given; cited from earlier work
[6] = vancomycin 50 mg/kg intraperitoneally, bioassay with Bacillus subtilis

SMILES | level at 4 h ([1]; hairless (immunocompetent), mouse, serum, ip, daptomycin 25 mg/kg intraperitoneally, bioassay with Micrococcus luteus) | level at 0.5 h ([1]; hairless (immunocompetent), mouse, serum, ip, daptomycin 25 mg/kg intraperitoneally, bioassay with Micrococcus luteus, read-out: serum concentration at 30 minutes) | release of [3H]choline (marker of cell wall lysis) ([2]; compared with ceftriaxone treatment) | penetration across inflamed meninges ([2]; rabbit, in vivo) | in vitro bactericidal activity, effect of dexamethasone [3] | CSF titers at 24 hours post infection ([4]; mouse, in vivo) | drop of bacterial titers four hours after a single treatment ([4]; mouse, in vivo) | serum Cmax [5] | serum level at 30 minutes [1, 6] | serum level at 3 hours [1, 6] | drop of bacterial titers four hours after a single treatment ([4]; CSF, mice, accompanied by 1 mg/kg of dexamethasone, daptomycin 25 mg/kg or vancomycin 50 mg/kg i.p.) | CSF titers at 24 hours post infection ([4]; mice, vancomycin 50 mg/kg at 16 and 20 hours or daptomycin 25 mg/kg at 16 hours, i.p., with dexamethasone 1 mg/kg every 6 hours)
CCCCCCCCCC(=O)N[C@@H](Cc1c[nH]c2ccccc12)C(=O)N[C@H](CC(N)=O)C(=O)N[C@@H](CC(=O)O)C(=O)N[C@@H]1C(=O)NCC(=O)N[C@@H](CCCN)C(=O)N[C@@H](CC(=O)O)C(=O)N[C@H](C)C(=O)N[C@@H](CC(=O)O)C(=O)NCC(=O)N[C@H](CO)C(=O)N[C@@H]([C@H](C)CC(=O)O)C(=O)N[C@@H](CC(=O)c2ccccc2N)C(=O)O[C@@H]1C [daptomycin] | 16 µg/mL | 127 µg/mL | negligible | 6% | not affected | 3.9 log10 cfu/ml | 1.33 log10 | 90 to 100 µg/mL |  |  |  | 
CN[C@H](CC(C)C)C(=O)N[C@H]1C(=O)N[C@@H](CC(N)=O)C(=O)N[C@H]2C(=O)N[C@H]3C(=O)N[C@H](C(=O)N[C@H](C(=O)O)c4cc(O)cc(O)c4-c4cc3ccc4O)[C@H](O)c3ccc(c(Cl)c3)Oc3cc2cc(c3O[C@@H]2O[C@H](CO)[C@@H](O)[C@H](O)[C@H]2O[C@H]2C[C@](C)(N)[C@H](O)[C@H](C)O2)Oc2ccc(cc2Cl)[C@H]1O [vancomycin] |  |  |  |  | not affected |  |  |  | 55 µg/mL | < 0.5 µg/mL | 0.43 log10 | 3.4 log10 cfu/ml
